In one data set the target is T1, human NGLY1 (Homo sapiens, UniProt Q96IV0).
T1 construct: host or cells: HEK293T
T1 sequence (Q96IV0 1-654): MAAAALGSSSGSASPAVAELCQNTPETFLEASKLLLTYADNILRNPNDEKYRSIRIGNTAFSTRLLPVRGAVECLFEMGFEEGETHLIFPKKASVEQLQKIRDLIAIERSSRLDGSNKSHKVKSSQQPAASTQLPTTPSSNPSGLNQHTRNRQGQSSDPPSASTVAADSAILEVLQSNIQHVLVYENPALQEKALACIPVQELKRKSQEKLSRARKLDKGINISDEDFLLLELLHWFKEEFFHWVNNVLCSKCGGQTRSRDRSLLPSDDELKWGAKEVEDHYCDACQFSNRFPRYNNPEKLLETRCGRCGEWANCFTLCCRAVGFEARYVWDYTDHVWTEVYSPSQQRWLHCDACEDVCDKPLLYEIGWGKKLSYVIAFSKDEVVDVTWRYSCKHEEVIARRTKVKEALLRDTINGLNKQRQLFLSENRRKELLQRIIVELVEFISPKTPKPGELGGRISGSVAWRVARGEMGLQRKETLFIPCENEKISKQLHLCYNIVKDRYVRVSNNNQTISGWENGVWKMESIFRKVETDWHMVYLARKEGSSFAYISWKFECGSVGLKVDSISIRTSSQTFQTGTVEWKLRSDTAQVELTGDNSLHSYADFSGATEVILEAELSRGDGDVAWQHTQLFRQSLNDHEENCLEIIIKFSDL
In words: RNase B deglycosylation assay with recombinant human NGLY1. Type of data set: biochemical. The source says: The computational homology model of human NGLY1 core domain was generated and used for studying interactions between NGLY1 and novel small molecules that are designed to covalently modified and inactivate the catalytic site of NGLY1. (FIG. 15A) The most favorable binding pose of Z-VAD-fmk, a short peptide with NGLY1 and caspase inhibitory activity, in the human NGLY1 homology model superimposed to the conformation of Z-VAD-fmk bound to mouse NGLY1 in a co-crystalized structure. […] RNase B (g): glycosylated RNase B. RNase B (dg): deglycosylated RNase B. Veh: vehicle (DMSO) treatment. M: molecular weight marker. Lower panel: the deglycosylation of NFE2L1 altered by the treatment of 20 μM Z-VAD-fmk and 200 μM NM-350 in bortezomib-treated HEK293T cells. The cells were pretreated with vehicle (DMSO), Z-VAD-fmk and NM-350 for 24 hours and subsequently subjected to concomitant treatment with 10 μM bortezomib for an additional 16 hours. Cell lysates reacted with and without 500 units of PNGase F for 2 hours were analyzed using Western blotting. Top arrowhead in lanes 2 and 3: fully glycosylated NFE2L1. Top arrowhead in lane 1: partially glycosylated NFE2L1. Bottom arrowhead: deglycosylated and truncated NFE2L1. […] The cell viability curve of combinatorial treatment was plotted according to the doses of dacarbazine used in the treatment. […] The cell viability curve of combinatorial treatment was plotted according to the doses of bortezomib used in the treatment. All the data of cell viability tests were presented as mean±standard deviation (n=3).
FLAG-tagged human NGLY1 was overexpressed by the transduction of the pLenti expression vector that carries a Myc-DDK-tagged-human NGLY1 open reading frame in HEK293T cells. Anti-FLAG magnetic beads (OriGene Technologies, Rockville, MD) were used to react with the lysate of HEK293T cells overnight at 4° C. in the presence of pan-protease inhibitors to purify the FLAG-tagged NGLY1. The magnetic beads were thoroughly washed using 0.5% Tween 20 in PBS for three times to minimize non-specific binding. The enrichment of recombinant human NGLY1 was checked by Western blotting of NGLY1 in the pull-down fraction. To perform RNase B deglycosylation assays, purified human NGLY1 on an equal volume of magnetic beads was incubated with PBS containing each of the indicated small molecules and control vehicle (DMSO) at 37° C. for 2 hours. The magnetic beads were then collected and resuspended in PBS containing 0.05% NP-40. Each magnetic bead suspension was mixed with 1 ug RNase B (Millipore Sigma, St. Louis, MO) that was pre-denatured using 5 mM DTT in the presence of 8M urea at 42° C. for 1 hour followed by the treatment of 25 mM iodoacetamide at room temperature for 1 hour and buffer exchange into PBS using Zeba 7K MWCO spin columns (Thermo Fisher Scientific, Carlsbad, CA). The mixtures of magnetic bead suspension and denatured RNase B were left at 37° C. for 16 hours. The proteins in each mixture were resolved by SDS-PAGE and visualized using SYPRO Ruby gel stain (Thermo Fisher Scientific, Carlsbad, CA).

The test system of a further data set is NFE2L1. In words: Deglycosylation of NFE2L1 in bortezomib-treated HEK293T cells (Western blotting). Type of data set: cell-based. As to conditions: 24 hours pretreatment then 10 μM bortezomib 16 hours. The source says:
The computational homology model of human NGLY1 core domain was generated and used for studying interactions between NGLY1 and novel small molecules that are designed to covalently modified and inactivate the catalytic site of NGLY1. (FIG. 15A) The most favorable binding pose of Z-VAD-fmk, a short peptide with NGLY1 and caspase inhibitory activity, in the human NGLY1 homology model superimposed to the conformation of Z-VAD-fmk bound to mouse NGLY1 in a co-crystalized structure. […] RNase B (g): glycosylated RNase B. RNase B (dg): deglycosylated RNase B. Veh: vehicle (DMSO) treatment. M: molecular weight marker. Lower panel: the deglycosylation of NFE2L1 altered by the treatment of 20 μM Z-VAD-fmk and 200 μM NM-350 in bortezomib-treated HEK293T cells. The cells were pretreated with vehicle (DMSO), Z-VAD-fmk and NM-350 for 24 hours and subsequently subjected to concomitant treatment with 10 μM bortezomib for an additional 16 hours. Cell lysates reacted with and without 500 units of PNGase F for 2 hours were analyzed using Western blotting. Top arrowhead in lanes 2 and 3: fully glycosylated NFE2L1. Top arrowhead in lane 1: partially glycosylated NFE2L1. Bottom arrowhead: deglycosylated and truncated NFE2L1. […] The cell viability curve of combinatorial treatment was plotted according to the doses of dacarbazine used in the treatment. […]
(In general: In western blotting, separated proteins are transferred to a membrane and probed.)

A further data set deals with SK-MEL-2 cells. In words: Cell viability test (MTT) in SK-MEL-2 cells. It is filed as cell-based, human. On the procedure: (§1) Despite the frequent failure of chemotherapy in patients with melanoma, chemotherapy remains a frontline approach for treatment, especially in many patients who cannot afford immunotherapy or targeted therapy. […] Identifying novel approaches to enhance the efficacy of chemotherapy and targeted therapy agents in melanoma will greatly benefit many cancer patients. […] The IC50 of each drug treatment in each cell clone was calculated using CalcuSyn 2.0.
(§2) The dose effect of dox-induced expression of NGLY1 shRNA in each cell clone was also determined. The IC50 of each drug treatment in each cell clone was calculated using CalcuSyn 2.0. To determine the interaction between NGLY1 knockdown and each anticancer agent, cells were exposed to four-dose combinations of dox and an anticancer agent at a fixed dose ratio. The combination index (CI) value was calculated using CalcuSyn 2.0. CI values of less than 1 are considered a synergistic interaction. […]
(§3) Cells were seeded into 96-well plates (2,500-5,000 cells/well, depending on cell types), incubated overnight, and treated as indicated. […] Reduced MTT was solubilized in DMSO for determination of absorbance at 570 nm. Absorbance of reduced MTS was directly measured in the reaction medium at 490 nm. The relative cell viability in each treatment condition was calculated based on absorbance values.

Another data set has as its system MALME3M cells. It is filed as cell-based. To be noted: 20 μM, 72-hour treatment. Here is the method:
as §1, §2, §3

A further data set relates to UACC257 cells. As to the kind of experiment: Cell viability test (MTT) in UACC257 cells. It is filed as cell-based, human. As to conditions: 20 μM, 72-hour treatment. Here is the method:
as §1, §2, §3

The next data set concerns NGLY1. As to the kind of experiment: NGLY1 expression in stable clones of melanoma cells (immunoblotting). It is filed as cell-based, human. As to conditions: stable clones of MALME3M, UACC257 and SK-MEL-2 cells, 48-hour treatment of dox. The source says: These NGLY1-targeting shRNA sequences and a scrambled (non-targeting) shRNA sequence were cloned into doxycycline (dox)-inducible, polycistronic green fluorescence protein (GFP)-shRNA expression constructs (a pZIP inducible lentiviral vector, TransOMIC). Stable clones have been generated with the shRNA expression constructs in multiple human melanoma cell lines, including MALME3M, UACC257, SK-MEL-2, and COLO829 melanoma cells. […] Similar knockdown effects were found in the stable clones of other melanoma cells with this particular NGLY1 shRNA sequence. […] Similar to human normal fibroblasts, normal melanocytes (FIG. 5D) and keratinocytes appeared to well tolerate NGLY1 knockdown and show no sign of increased cell death. In addition, SK-MEL-2, MALME3M cells that express inducible NGLY1 shRNA presented significant apoptosis, compared to their scrambled RNA-expressing counterparts. The expression of exogenous human NGLY1 in melanoma cells attenuated NGLY1-targeting shRNA-induced apoptosis (FIG. 5E).
The knockdown of NGLY1 expression in melanoma cells was achieved by the transduction of pZIP-TRE3GS lentiviral expression vectors that carry two independent shRNA sequences (Below; TransOMIC Technologies, Huntsville, AL). […] The expression of the shRNA sequences and an open reading frame of the ZsGreen reporter is driven by the TRE3GS doxycycline-inducible promoter. […]

The subject of another data set is HepG2 liver cancer cells. In words: Cell morphology of HepG2 cells with NGLY1 knockdown. It is filed as cell-based.
Data set [1] deals with U-251MG glioblastoma cells. In words: Cell morphology of U-251MG cells with NGLY1 knockdown. It is filed as cell-based.
The mark [2] stands for this setting: 2-hour reaction with human NGLY1.

Residues, ends and D or L forms follow the SMILES beside them. *: point of attachment. Cbz = O=C(OCc1ccccc1)*; CH2F = FC*

We go through eight molecules from patent US11779592B2, “Inhibition of NGLY1 for the treatment of cancer” (University of North Texas Health Science Center, priority 2017, dated 2023).

Regarding `C=CS(=O)(=O)N[C@@H](CC(=O)N[C@@H]1O[C@H](COC(C)=O)[C@@H](OC(C)=O)[C@H](OC(C)=O)[C@H]1NC(C)=O)C(=O)NCCC` [NM-348, (2R,3S,4R,5R,6R)-5-Acetamido-2-(acetoxymethyl)-6-((S)-4-oxo-4-(propylamino)-3-(vinylsulfonamido)butanamido)tetrahydro-2H-pyran-3,4-diyl diacetate], the “NGLY1 activity in the deglycosylation of denatured RNase B” value (“NGLY1 activity in the deglycosylation” for short) at human NGLY1 (setting [2]) was “suppressed its activity”. `Cc1ccc(S(=O)(=O)/C=C/C(=O)N[C@@H](CCc2ccccc2)C(=O)NCCC(C)C)cc1` [WRR139, reference compound]: the “NGLY1 activity in the deglycosylation” value on human NGLY1 (2-hour reaction, 5 μM) is listed as “suppressed its activity”. Consider `CCCNC(=O)[C@H](CC(=O)N[C@@H]1O[C@H](COC(C)=O)[C@@H](OC(C)=O)[C@H](OC(C)=O)[C@H]1NC(C)=O)NC(=O)CCl` [NM-350, (2R,3S,4R,5R,6R)-5-Acetamido-2-(acetoxymethyl)-6-((S)-3-(2-chloroacetamido)-4-oxo-4-(propylamino)butanamido)tetrahydro-2H-pyran-3,4-diyl diacetate], for which the “NGLY1 activity in the deglycosylation” value at human NGLY1 (setting [2]) is on record as “suppressed its activity”. Also, the “deglycosylation of NFE2L1” value in the data set with NFE2L1 (200 μM) was “clear retention of N-glycans on NFE2L1”. The “suppression of cell viability in combination” value in the data set with SK-MEL-2 cells (in combination with bortezomib) is on record as “synergistically suppressed the viability”. With `CCCNC(=O)[C@H](CC(=O)N[C@@H]1O[C@H](COC(C)=O)[C@@H](OC(C)=O)[C@H](OC(C)=O)[C@H]1NC(C)=O)NC(=O)/C=C/CN(C)C` [NM-354, (2R,3S,4R,5R,6R)-5-Acetamido-2-(acetoxymethyl)-6-((S)-3-((E)-4-(dimethylamino)but-2-enamido)-4-oxo-4-(propylamino)butanamido)tetrahydro-2H-pyran-3,4-diyl diacetate], the “NGLY1 activity in the deglycosylation” value at human NGLY1 (setting [2]) is given as “suppressed its activity”. As for `N.N.[Cl][Pt][Cl]` [cisplatin], the “growth and cell death” value in the data set on MALME3M cells and in the data set with UACC257 cells was “moderate growth inhibition without increase of cell death” throughout. Consider `C=CC(=O)N[C@@H](CC(=O)N[C@@H]1O[C@H](COC(C)=O)[C@@H](OC(C)=O)[C@H](OC(C)=O)[C@H]1NC(C)=O)C(=O)NCCC` [NM-322, (2R,3S,4R,5R,6R)-5-acetamido-2-(acetoxymethyl)-6-((S)-3-acrylamido-4-oxo-4-(propylamino)butanamido)tetrahydro-2H-pyran-3,4-diyl diacetate], for which the “NGLY1 activity in the deglycosylation” value on human NGLY1 (setting [2]) was “suppressed its activity”. For the same molecule, the “suppression of cell viability in combination” value in the data set with SK-MEL-2 cells (in combination with dacarbazine) is reported as “synergistic effect”. In the case of `COC(=O)C[C@H](NC(=O)[C@H](C)NC(=O)[C@@H](NC(=O)OCc1ccccc1)C(C)C)C(=O)CF` [Z-VAD-fmk, reference compound] (Cbz-Val-Ala-Asp(OMe)-CH2F), the “NGLY1 activity in the deglycosylation” value on human NGLY1 (2-hour reaction, 20 μM) is given as “suppressed its activity”. Also, the “deglycosylation of NFE2L1” value in the data set with NFE2L1 (20 μM) is given as “altered”.

B1: NGLY1-shRNA647: NGLY1-targeting shRNA sequence (SEQ ID NO: 6), dox-inducible lentiviral vector (nucleic acid)
DNA: AAAGCAUUACUUCGAGACACUAUAGUGAAGCCACAGAUGUAUAGUGUCUCGAAGUAAUGCUUCU
For B1, the “expression of NGLY1” value in the data set on NGLY1 was “largely suppressed”. Moreover, the cell morphology result (with HepG2 liver cancer cells; in data set [1]) was “morphology of apoptosis” each time.
